From patent US7635572B2, “Methods for conducting assays for enzyme activity on protein microarrays” (Life Technologies Corporation, priority 2004, dated 2009)

Legend:
Assay in all cases: Further analysis of a plurality of inhibitors and a plurality of kinases on microarray (Example IX, Table 5);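 note: inhibition of each kinase by the inhibitors is given as a qualitative level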;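 for Inhibition level, DAPK2: level 0 no or unclear inhibition to Level 2 substantial inhibition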;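 for Inhibition level, LOC57118: level 0 none or unclear then 1 little or marginal then 2 substantial inhibition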;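 for Inhibition level, MAP3K4: level 0 no or unclear inhibition to Level 2 substantial inhibition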;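 for Inhibition level, STK6: level 0 no or unclear inhibition to Level 2 substantial inhibition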;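 for Inhibition level, TLK2: level 0 none or unclear Level 1 marginal Level 2 substantial inhibition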
Type in all cases: biochemical
[1] = target: T1, plurality of kinases (Table 5) (Homo sapiens, UniProt Q96KB5); conditions: plate G7
T1 sequence (Q96KB5 1-322): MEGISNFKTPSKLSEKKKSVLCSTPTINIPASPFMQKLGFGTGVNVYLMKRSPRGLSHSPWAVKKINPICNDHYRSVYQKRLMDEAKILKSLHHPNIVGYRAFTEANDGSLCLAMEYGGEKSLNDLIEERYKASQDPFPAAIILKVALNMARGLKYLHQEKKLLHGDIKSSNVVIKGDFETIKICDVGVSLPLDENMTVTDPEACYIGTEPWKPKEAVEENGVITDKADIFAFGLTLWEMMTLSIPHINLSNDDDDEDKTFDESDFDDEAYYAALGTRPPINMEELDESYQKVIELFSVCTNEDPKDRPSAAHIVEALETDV

[2] = target: plurality of kinases (Table 5) (Homo sapiens, UniProt Q9Y6R4); conditions: plate E7; inhibitor 100 uM
[3] = target: T2, plurality of kinases (Table 5) (Homo sapiens, UniProt P29323); conditions: plate E5
T2 sequence (P29323 19-1055): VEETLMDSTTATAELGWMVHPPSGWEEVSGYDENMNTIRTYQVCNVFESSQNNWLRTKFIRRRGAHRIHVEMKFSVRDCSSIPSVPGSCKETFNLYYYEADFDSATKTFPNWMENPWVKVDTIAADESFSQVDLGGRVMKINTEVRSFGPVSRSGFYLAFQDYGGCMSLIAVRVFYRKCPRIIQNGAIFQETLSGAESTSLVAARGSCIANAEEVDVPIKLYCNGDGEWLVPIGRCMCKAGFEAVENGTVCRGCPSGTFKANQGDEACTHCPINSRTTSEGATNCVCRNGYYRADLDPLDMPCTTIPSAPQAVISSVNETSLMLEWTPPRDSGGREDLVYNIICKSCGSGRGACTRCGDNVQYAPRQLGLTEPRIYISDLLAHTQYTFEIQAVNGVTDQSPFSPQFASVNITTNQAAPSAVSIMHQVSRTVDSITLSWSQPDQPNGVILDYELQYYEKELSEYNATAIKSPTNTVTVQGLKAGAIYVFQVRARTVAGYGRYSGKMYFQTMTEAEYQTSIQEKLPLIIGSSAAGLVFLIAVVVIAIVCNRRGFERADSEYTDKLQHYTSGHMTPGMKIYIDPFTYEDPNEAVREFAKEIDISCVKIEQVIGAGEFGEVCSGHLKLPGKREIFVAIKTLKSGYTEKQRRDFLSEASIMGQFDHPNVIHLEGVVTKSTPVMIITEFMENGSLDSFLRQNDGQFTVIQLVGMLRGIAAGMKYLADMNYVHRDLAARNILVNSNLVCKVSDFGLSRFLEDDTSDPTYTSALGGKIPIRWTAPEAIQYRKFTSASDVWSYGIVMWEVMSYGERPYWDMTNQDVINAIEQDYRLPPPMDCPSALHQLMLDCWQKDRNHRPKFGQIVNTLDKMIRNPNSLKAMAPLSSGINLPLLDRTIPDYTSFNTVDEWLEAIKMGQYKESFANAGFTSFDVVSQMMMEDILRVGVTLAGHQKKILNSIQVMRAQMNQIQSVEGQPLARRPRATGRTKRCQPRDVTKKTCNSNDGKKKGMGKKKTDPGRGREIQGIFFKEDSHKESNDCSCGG

[4] = target: plurality of kinases (Table 5) (Homo sapiens, UniProt Q8IU85); conditions: plate D2; inhibitor 100 uM
[5] = target: plurality of kinases (Table 5) (Homo sapiens, UniProt P11362); conditions: plate D12; inhibitor 100 uM
[6] = target: plurality of kinases (Table 5) (Homo sapiens, UniProt P24723); conditions: plate B3
[7] = target: plurality of kinases (Table 5) (Homo sapiens, UniProt Q86UE8); conditions: plate C8
[8] = target: plurality of kinases (Table 5) (Homo sapiens, UniProt Q9UIK4); conditions: plate H3
[9] = target: T3, plurality of kinases (Table 5) (Homo sapiens, UniProt O14965); conditions: plate C6
T3 sequence (O14965 1-403): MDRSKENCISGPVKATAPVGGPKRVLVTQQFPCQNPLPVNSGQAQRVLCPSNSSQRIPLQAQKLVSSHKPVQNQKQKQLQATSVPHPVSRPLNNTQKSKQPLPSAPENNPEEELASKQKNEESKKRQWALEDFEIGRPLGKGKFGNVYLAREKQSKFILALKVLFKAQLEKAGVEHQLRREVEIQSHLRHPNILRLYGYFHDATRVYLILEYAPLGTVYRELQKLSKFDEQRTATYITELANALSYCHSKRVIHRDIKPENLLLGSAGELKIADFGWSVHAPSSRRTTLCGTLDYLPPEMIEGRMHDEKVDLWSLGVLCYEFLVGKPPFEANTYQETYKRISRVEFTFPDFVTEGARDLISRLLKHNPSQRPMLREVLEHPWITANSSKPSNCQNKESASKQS

plurality of kinases (Table 5) (Homo sapiens, UniProt Q9Y6R4), sequence (Q9Y6R4 whole entry): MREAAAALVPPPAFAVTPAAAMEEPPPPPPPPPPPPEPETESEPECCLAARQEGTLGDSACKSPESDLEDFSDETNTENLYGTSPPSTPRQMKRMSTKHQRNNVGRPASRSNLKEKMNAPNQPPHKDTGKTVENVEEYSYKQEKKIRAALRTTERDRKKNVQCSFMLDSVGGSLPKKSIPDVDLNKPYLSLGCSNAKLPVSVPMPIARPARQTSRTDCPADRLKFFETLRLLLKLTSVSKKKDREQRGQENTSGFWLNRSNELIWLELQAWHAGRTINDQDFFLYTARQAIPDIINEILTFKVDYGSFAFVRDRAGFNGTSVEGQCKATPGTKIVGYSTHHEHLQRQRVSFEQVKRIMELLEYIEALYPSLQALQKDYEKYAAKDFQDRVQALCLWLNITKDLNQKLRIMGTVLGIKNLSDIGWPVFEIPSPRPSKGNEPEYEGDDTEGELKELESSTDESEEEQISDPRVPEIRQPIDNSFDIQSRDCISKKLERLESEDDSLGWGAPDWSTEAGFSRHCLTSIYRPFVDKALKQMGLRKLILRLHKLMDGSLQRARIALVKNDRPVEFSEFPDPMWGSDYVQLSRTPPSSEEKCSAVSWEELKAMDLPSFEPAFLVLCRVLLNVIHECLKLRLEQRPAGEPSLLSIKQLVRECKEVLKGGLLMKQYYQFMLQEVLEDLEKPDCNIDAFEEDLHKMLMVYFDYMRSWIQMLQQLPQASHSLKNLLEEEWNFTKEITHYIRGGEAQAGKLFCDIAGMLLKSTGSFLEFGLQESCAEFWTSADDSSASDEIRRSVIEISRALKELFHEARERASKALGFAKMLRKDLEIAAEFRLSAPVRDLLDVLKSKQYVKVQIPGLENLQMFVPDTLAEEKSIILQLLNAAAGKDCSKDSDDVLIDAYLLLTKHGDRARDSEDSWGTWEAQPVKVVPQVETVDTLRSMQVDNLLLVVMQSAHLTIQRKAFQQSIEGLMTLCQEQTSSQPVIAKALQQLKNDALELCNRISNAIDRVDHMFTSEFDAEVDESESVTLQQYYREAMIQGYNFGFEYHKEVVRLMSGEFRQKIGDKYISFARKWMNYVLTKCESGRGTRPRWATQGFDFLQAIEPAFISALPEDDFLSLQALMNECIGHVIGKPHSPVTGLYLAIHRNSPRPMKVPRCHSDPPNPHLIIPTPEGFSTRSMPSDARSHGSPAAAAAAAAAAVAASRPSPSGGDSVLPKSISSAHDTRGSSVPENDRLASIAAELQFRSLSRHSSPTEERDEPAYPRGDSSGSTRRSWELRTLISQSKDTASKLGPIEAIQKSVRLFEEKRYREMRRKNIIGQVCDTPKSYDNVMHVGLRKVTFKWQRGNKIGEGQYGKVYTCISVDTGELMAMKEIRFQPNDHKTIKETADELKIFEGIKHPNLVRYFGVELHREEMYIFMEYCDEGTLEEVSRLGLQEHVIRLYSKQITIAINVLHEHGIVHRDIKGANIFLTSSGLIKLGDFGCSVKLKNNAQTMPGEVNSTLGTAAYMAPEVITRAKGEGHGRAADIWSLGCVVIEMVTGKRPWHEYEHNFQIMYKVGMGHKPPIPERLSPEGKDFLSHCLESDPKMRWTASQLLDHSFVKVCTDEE
plurality of kinases (Table 5) (Homo sapiens, UniProt P24723), sequence (P24723 whole entry): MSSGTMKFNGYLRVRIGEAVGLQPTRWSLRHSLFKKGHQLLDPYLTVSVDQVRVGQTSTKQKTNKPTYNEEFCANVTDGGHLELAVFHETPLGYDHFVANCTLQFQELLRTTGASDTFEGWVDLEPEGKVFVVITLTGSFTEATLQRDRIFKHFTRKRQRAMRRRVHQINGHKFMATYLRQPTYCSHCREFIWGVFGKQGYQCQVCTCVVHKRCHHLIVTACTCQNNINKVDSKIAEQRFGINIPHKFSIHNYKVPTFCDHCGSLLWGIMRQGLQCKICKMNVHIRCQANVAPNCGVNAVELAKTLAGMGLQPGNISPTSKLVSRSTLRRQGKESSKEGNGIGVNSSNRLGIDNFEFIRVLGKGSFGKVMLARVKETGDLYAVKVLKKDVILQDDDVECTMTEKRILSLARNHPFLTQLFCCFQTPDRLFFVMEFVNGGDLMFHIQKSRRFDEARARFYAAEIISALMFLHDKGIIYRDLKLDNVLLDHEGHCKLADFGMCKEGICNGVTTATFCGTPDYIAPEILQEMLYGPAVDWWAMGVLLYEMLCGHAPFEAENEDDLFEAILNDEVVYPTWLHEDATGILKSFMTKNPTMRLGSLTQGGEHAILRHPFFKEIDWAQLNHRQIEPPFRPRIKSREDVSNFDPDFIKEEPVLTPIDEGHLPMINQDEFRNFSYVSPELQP
plurality of kinases (Table 5) (Homo sapiens, UniProt P11362), sequence (P11362 22-822): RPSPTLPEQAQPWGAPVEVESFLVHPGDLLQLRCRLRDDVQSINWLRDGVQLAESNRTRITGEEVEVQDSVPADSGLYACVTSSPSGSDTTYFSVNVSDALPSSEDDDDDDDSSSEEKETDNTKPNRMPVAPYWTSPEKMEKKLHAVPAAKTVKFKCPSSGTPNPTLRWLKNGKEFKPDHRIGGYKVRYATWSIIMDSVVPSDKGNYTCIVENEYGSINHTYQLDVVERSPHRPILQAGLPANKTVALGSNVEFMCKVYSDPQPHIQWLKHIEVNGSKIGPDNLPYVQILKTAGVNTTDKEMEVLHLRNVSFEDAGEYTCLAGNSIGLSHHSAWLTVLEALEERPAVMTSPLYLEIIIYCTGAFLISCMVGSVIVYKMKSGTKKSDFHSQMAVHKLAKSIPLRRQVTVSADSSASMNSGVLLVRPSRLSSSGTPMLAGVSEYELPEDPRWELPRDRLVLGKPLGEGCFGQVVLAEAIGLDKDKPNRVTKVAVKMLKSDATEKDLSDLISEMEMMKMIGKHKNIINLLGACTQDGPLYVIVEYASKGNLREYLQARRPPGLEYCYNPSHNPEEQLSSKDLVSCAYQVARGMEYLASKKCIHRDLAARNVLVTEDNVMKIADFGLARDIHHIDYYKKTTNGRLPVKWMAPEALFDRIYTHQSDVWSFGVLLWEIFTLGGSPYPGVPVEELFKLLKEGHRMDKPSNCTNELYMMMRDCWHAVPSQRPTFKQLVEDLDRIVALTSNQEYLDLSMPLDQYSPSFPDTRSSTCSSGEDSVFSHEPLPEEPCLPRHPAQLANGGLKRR
plurality of kinases (Table 5) (Homo sapiens, UniProt Q86UE8), sequence (Q86UE8 whole entry): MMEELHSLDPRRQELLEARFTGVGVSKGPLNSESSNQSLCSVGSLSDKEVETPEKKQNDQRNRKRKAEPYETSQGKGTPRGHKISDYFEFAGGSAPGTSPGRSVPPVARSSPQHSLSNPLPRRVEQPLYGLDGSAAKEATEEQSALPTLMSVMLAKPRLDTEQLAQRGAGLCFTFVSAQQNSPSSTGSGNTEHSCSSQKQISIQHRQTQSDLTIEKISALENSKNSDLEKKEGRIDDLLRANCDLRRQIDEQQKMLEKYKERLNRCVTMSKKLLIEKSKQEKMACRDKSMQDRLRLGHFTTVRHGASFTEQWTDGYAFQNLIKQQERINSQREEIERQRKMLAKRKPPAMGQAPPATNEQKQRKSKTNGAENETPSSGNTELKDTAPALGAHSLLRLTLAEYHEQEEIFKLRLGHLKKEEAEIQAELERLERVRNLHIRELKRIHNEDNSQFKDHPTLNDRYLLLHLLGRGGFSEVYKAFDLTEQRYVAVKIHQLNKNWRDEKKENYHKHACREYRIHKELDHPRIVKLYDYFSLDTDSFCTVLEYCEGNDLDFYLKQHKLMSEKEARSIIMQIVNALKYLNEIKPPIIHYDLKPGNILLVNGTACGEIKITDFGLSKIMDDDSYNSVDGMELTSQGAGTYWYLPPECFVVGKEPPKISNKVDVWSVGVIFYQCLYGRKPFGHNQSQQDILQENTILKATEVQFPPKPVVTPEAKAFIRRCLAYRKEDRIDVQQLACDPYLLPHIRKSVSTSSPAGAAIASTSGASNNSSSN
plurality of kinases (Table 5) (Homo sapiens, UniProt Q9UIK4), sequence (Q9UIK4 whole entry): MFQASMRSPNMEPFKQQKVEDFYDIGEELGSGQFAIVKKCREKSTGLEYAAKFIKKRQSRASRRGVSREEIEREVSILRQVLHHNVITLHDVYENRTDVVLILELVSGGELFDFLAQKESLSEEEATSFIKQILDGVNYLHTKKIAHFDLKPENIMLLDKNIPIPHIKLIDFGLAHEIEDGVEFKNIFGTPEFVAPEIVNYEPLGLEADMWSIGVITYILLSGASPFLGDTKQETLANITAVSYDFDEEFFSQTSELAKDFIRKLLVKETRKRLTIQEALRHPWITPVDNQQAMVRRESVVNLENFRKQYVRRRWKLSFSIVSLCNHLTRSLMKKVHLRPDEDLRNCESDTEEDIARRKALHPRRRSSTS
plurality of kinases (Table 5) (Homo sapiens, UniProt Q8IU85), sequence (Q8IU85 whole entry): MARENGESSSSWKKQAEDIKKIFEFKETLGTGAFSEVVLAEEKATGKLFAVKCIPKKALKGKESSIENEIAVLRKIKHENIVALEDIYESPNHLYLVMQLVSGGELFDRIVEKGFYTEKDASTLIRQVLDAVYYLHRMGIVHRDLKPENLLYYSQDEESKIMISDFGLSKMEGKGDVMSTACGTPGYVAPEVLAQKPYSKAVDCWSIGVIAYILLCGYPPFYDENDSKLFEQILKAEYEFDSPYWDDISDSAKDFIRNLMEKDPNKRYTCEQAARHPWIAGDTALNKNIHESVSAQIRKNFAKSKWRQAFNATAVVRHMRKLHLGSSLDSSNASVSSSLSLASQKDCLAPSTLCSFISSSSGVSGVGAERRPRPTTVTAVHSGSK

Inhibition level, FGFR1 [5]	Inhibition level, STK6 ([9]; inhibitor 100 uM)	SMILES	Inhibition level, TOPK ([1]; inhibitor 100 uM)	Inhibition level, MAP3K4 [2]	Inhibition level, EPHB2 ([3]; inhibitor 100 uM)	Inhibition level, LOC57118 [4]	Inhibition level, PRKCH ([6]; inhibitor 100 uM)	Inhibition level, TLK2 ([7]; inhibitor 100 uM)	Inhibition level, DAPK2 ([8]; inhibitor 100 uM)	further results
0	2	O=c1c(-c2ccc(O)cc2)coc2cc(O)cc(O)c12 [Genistein]	2	1	2	0	2	2	2	Inhibition level, TOPK ([1]; Genistein <3.7 mM): 0; Inhibition level, EPHB2 ([3]; Genistein <3.7 mM): 0; Inhibition level, PRKCH ([6]; Genistein, conc. not given): 0; Inhibition level, TLK2 ([7]; Genistein <3.7 mM): 0; Inhibition level, DAPK2 ([8]; Genistein, conc. not given): 0; Inhibition level, STK6 ([9]; Genistein <3.7 mM): 0
1	0	O=S(=O)(NCCNC/C=C/c1ccc(Br)cc1)c1cccc2cnccc12 [H-89]	2	1	2	1	2	2	2	
2	2	CC(C)(C)n1nc(-c2ccc(Cl)cc2)c2c(N)ncnc21 [PP2]	2	2	2	0	2	2	2	
		O=c1c(O)c(-c2ccc(O)c(O)c2)oc2cc(O)cc(O)c12 [Quercetin]	0	0	2	0	0	0	0	
2	2	Cn1cc(C2=C(c3cn(CCCSC(=N)N)c4ccccc34)C(=O)NC2=O)c2ccccc21 [Ro-31-8220]	0	2	2	0	2	1	2	Inhibition level, TOPK ([1]; Ro-31-8220 90 uM): 2; Inhibition level, EPHB2 ([3]; Ro-31-8220 90 uM): 0; Inhibition level, PRKCH ([6]; Ro-31-8220, conc. not given): 2; Inhibition level, TLK2 ([7]; Ro-31-8220 90 uM): 2; Inhibition level, DAPK2 ([8]; Ro-31-8220, conc. not given): 2; Inhibition level, STK6 ([9]; Ro-31-8220 90 uM): 0
		CN[C@@H]1C[C@H]2O[C@@](C)([C@@H]1OC)n1c3ccccc3c3c4c(c5c6ccccc6n2c5c31)C(=O)NC4 [Staurosporine]								Inhibition level, TOPK ([1]; Staurosporine 21.5 uM): 2; Inhibition level, TLK2 ([7]; Staurosporine 21.5 uM): 2; Inhibition level, DAPK2 ([8]; Staurosporine, conc. not given): 2; Inhibition level, STK6 ([9]; Staurosporine 21.5 uM): 0

SMILES	Inhibition level, FGFR1 [5]	Inhibition level, STK6 ([9]; inhibitor 100 uM)	Inhibition level, TOPK ([1]; inhibitor 100 uM)	Inhibition level, MAP3K4 [2]	Inhibition level, EPHB2 ([3]; inhibitor 100 uM)	Inhibition level, LOC57118 [4]	Inhibition level, PRKCH ([6]; inhibitor 100 uM)	Inhibition level, TLK2 ([7]; inhibitor 100 uM)	Inhibition level, DAPK2 ([8]; inhibitor 100 uM)	further results
N#C/C(=C/c1ccc(O)c(O)c1)C(=O)NCc1ccccc1 [AG 490]	0	2	2	2	2	1	2	2	2	
COc1cc2ncnc(Nc3cccc(Cl)c3)c2cc1OC [AG 1478]	1	0	1	1	2	0	0	2	0	
CC(=O)c1c(O)c(C)c(O)c(Cc2c(O)c3c(c(C(=O)/C=C/c4ccccc4)c2O)OC(C)(C)C=C3)c1O [Rottlerin (Mallotoxin)]	1	2	2	1	2	0	2	2	1	
